These results are taken from patent US7981926B2, “Fluorotaxoids” (Research Foundation of State University of New York, priority 2005, dated 2011).

One data set has as its system MCF7 (mammary carcinoma). Briefly: Tumor growth inhibitory activity (cytotoxicity), SRB method of Skehan et al, MCF7. The class given is cell-based, human. The note with it: read-out: IC50 MCF7 (breast). The text has this: (§1) The results were obtained according to the methods of Skehan et al (See Skehan et al., J. Nat. Cancer Inst., 82, 1107 (1990)), as more fully described in the Examples. The resistance factor (R/S) shown in the table is a measure of the degree of resistance of a cell line against a taxoid compound. The resistance factor is a ratio of the cytoxicity of a taxoid compound against a drug-resistant cell line (R) as compared to its cytoxicity against a drug-sensitive cell line (S).
(§2) In the tables, lower numbers indicate higher potency (or greater activity). Paclitaxel was used as the standard for comparison. The data represent the mean values of at least three separate experiments.
(§3) Assessment of cell growth inhibition was determined according to the methods of Skehan et al (See Skehan et al., J. Nat. Cancer Inst., 82, 1107 (1990)). Briefly, cells were plated between 400 and 1200 cells/well in 96 well plates and incubated at 37° C. for 15-18 h prior to drug addition to allow attachment of cells. Compounds tested were solubilized in 100% DMSO and further diluted in RPMI-1640 containing 10 mM HEPES. Each cell line was treated with 10 concentrations of compounds (5 log range). After a 72 h incubation, 100 μL of ice-cold 50% TCA was added to each well and incubated for 1 h at 4° C. Plates were then washed 5 times with tap water to remove TCA, low-molecular-weight metabolites and serum proteins. Sulforhodamine B (SRB) (0.4%, 50 μL) was added to each well. Following a 5 minute incubation at room temperature, plates were rinsed 5 times with 0.1% acetic acid and air dried. Bound dye was solubilized with 10 mM Tris Base (pH 10.5) for 5 min on a gyratory shaker. Optical density was measured at 570 nm.
(§4) Data were fit with the Sigmoid-Emax concentration-effect model with non-linear regression, weighted by the reciprocal of the square of the predicted response (see Holford, N. H. G.; Scheiner, L. B., “Understanding the dose-effect relationship: Clinical applications of pharmaco-kinetic-pharmacodynamic models,” Clin. Pharmacokin., 6, 429-453 (1981)). The fitting software was developed by the Roswell Park Cancer Institute with Microsoft FORTRAN, and uses the Marquardt algorithm (see Marquardt, D. W., “An algorithm for least squares estimation of nonlinear parameters,” J. Soc. Ind. Appl. Math., 11, 431-441 (1963)) as adopted by Nash for the non-linear regression (see Nash, J. C., “Compact numerical method for computers: Linear algebra and function minimization,” John Wiley & Sons, New York, 1979).
On the technique in general: In SRB staining, fixed cells bind dye roughly in proportion to their protein.

Data set [1] deals with MCF7-R (mammary carcinoma cells 250-fold resistant to paclitaxel). Briefly: Tumor growth inhibitory activity (cytotoxicity), SRB method of Skehan et al, MCF7-R. Format: cell-based, human. The note with it: for IC50: read-out: IC50 MCF7-R (breast); for R/S (resistance factor): ratio of cytotoxicity against drug-resistant MCF7-R (R) to drug-sensitive MCF7 (S).
Description: as §1, §2, §3, §4

[2] abbreviates: Homo sapiens, MCF7, 72 h drug exposure, SRB, mean of at least three separate experiments.
Where [3] appears, read: Homo sapiens, MCF7R, drug-resistant cell line, 72 h drug exposure, SRB, mean of at least three separate experiments.
The mark [4] stands for this setting: 72 h drug exposure, SRB, mean of at least three separate experiments.
Where [5] appears, read: drug-resistant cell line, 72 h drug exposure, SRB, mean of at least three separate experiments.

Like-named read-outs stand apart in the source and are kept apart here.

One may read the IC50 as the concentration at which inhibition is half-maximal. For orientation: melting point means the temperature, or range, at which the solid turns liquid. The molecule `COC(=O)O[C@H]1C(=O)[C@@]2(C)C([C@H](OC(=O)c3ccccc3)[C@]3(O)C[C@H](OC(=O)[C@H](O)[C@H](C=C(F)F)NC(=O)OC(C)(C)C)C(C)=C1C3(C)C)[C@]1(OC(C)=O)CO[C@@H]1C[C@@H]2O` (stereo partly shown) [SB-T-12855, 3′-Dephenyl-3′-(2,2-difluorovinyl)-10-methoxycarbonyldocetaxel] displayed a melting point of 144 to 148 °C. Further, in the data set with MCF7 (mammary carcinoma) (setting [2]), the IC50 came out at 0.14 nM. The IC50 in data set [1] (setting [3]) turned out to be 1.29 nM. In data set [1], the “R/S (resistance factor)” value came out at 9.2.
For `CCC(=O)O[C@H]1C(=O)[C@@]2(C)C([C@H](OC(=O)c3ccccc3)[C@]3(O)C[C@H](OC(=O)[C@H](O)[C@H](C=C(F)F)NC(=O)OC(C)(C)C)C(C)=C1C3(C)C)[C@]1(OC(C)=O)CO[C@@H]1C[C@@H]2O` (stereo partly shown) [SB-T-12853, 3′-Dephenyl-3′-(2,2-difluorovinyl)-10-propanoyl-docetaxel], the melting point lay in the range of 175 to 181 °C. Also, the IC50 in the data set on MCF7 (mammary carcinoma) (setting [2]) came to 0.12 nM. In data set [1] (setting [3]), the IC50 is 1.2 nM. The “R/S (resistance factor)” value in data set [1] stood at 10.
Consider `COC(=O)O[C@H]1C(=O)[C@@]2(C)C([C@H](OC(=O)c3cccc(F)c3)[C@]3(O)C[C@H](OC(=O)[C@H](O)[C@H](C=C(F)F)NC(=O)OC(C)(C)C)C(C)=C1C3(C)C)[C@]1(OC(C)=O)CO[C@@H]1C[C@@H]2O` (stereo partly shown) [SB-T-12855-2, 3′-Dephenyl-3′-(2,2-difluorovinyl)-2-debenzoyl-2-(3-fluorobenzoyl)-10-methoxycarbonyldocetaxel], for which the half-inhibitory concentration (IC50) in the data set with MCF7 (mammary carcinoma) (setting [2]) stood at 0.12 nM; in data set [1] (setting [3]) it was 1.85 nM. The “R/S (resistance factor)” value in data set [1] was determined as 11.
Take `CC(=O)O[C@@]12CO[C@@H]1C[C@H](O)[C@@]1(C)C(=O)[C@H](OC(=O)N(C)C)C3=C(C)[C@@H](OC(=O)[C@H](O)[C@H](C=C(F)F)NC(=O)OC(C)(C)C)C[C@@](O)([C@@H](OC(=O)c4cccc(Cl)c4)C12)C3(C)C` (stereo partly shown) [SB-T-12854-4, 3′-Dephenyl-3′-(2,2-difluorovinyl)-2-debenzoyl-2-(3-chlorobenzoyl)-10-dimethylcarbamoyldocetaxel]: the 50% inhibitory concentration (IC50) in the data set with MCF7 (mammary carcinoma) (Homo sapiens, MCF7, 72 h) turned out to be 0.93 nM; in data set [1] (Homo sapiens, MCF7R, 72 h) it was 2.6 nM. Besides, the “R/S (resistance factor)” value in data set [1] is on record as 2.8.
As to `CC(=O)OC12COC1CC(O)C1(C)C(=O)C(OC(=O)C3CC3)C3=C(C)C(OC(=O)C(O)C(C=C(F)F)NC(=O)OC(C)(C)C)CC(O)(C(OC(=O)c4cccc(F)c4)C21)C3(C)C` (stereo not shown) [SB-T-12852-2, 3′-Dephenyl-3′-(2,2-difluorovinyl)-2-debenzoyl-2-(3-fluorobenzoyl)-10-cyclopropanecarbonyldocetaxel], the IC50 is 0.076 nM in the data set with MCF7 (mammary carcinoma) (setting [4]) and 1.72 nM in data set [1] (setting [5]). Further, in data set [1], the “R/S (resistance factor)” value stood at 23.
With `CCC(=O)O[C@H]1C(=O)[C@@]2(C)C([C@H](OC(=O)c3cccc(Cl)c3)[C@]3(O)C[C@H](OC(=O)[C@H](O)[C@H](C=C(F)F)NC(=O)OC(C)(C)C)C(C)=C1C3(C)C)[C@]1(OC(C)=O)CO[C@@H]1C[C@@H]2O` (stereo partly shown) [SB-T-12853-4, 3′-Dephenyl-3′-(2,2-difluorovinyl)-2-debenzoyl-2-(3-chlorobenzoyl)-10-propanoyldocetaxel], the concentration for half-maximal inhibition (IC50) with MCF7 (mammary carcinoma) (setting [2]) came out at 0.13 nM; in data set [1] (setting [3]) it was 0.45 nM. The “R/S (resistance factor)” value in data set [1] was determined as 3.5.
The like results for `CC(=O)O[C@H]1C(=O)[C@@]2(C)C([C@H](OC(=O)c3cccc(Cl)c3)[C@]3(O)C[C@H](OC(=O)[C@H](O)[C@H](C=C(F)F)NC(=O)OC(C)(C)C)C(C)=C1C3(C)C)[C@]1(OC(C)=O)CO[C@@H]1C[C@@H]2O` (stereo partly shown) [SB-T-12851-4, 3′-Dephenyl-3′-(2,2-difluorovinyl)-2-debenzoyl-2-(3-chlorobenzoyl)-10-acetyldocetaxel] were, in that order, 0.13 nM, 0.7 nM and 5.4.
For `COc1cccc(C(=O)O[C@H]2[C@@H]3[C@]4(OC(C)=O)CO[C@@H]4C[C@H](O)[C@@]3(C)C(=O)[C@H](OC(=O)C3CC3)C3=C(C)[C@@H](OC(=O)[C@H](O)[C@H](C=C(F)F)NC(=O)OC(C)(C)C)C[C@]2(O)C3(C)C)c1` [SB-T-12852-1, 3′-Dephenyl-3′-(2,2-difluorovinyl)-2-debenzoyl-2-(3-methoxybenzoyl)-10-cyclopropanecarbonyldocetaxel], the 50% inhibitory concentration (IC50) in the data set with MCF7 (mammary carcinoma) (setting [4]) was found to be 0.092 nM; in data set [1] (setting [5]), 0.48 nM. The “R/S (resistance factor)” value in data set [1] is listed as 5.2.
The molecule `CC(=O)O[C@@]12CO[C@@H]1C[C@H](O)[C@@]1(C)C(=O)[C@H](OC(=O)N(C)C)C3=C(C)[C@@H](OC(=O)[C@H](O)[C@H](C=C(F)F)NC(=O)OC(C)(C)C)C[C@@](O)([C@@H](OC(=O)c4ccccc4)C12)C3(C)C` (stereo partly shown) [SB-T-12854, 3′-Dephenyl-3′-(2,2-difluorovinyl)-10-dimethylcarbamoyldocetaxel] gave a melting point of 166 to 170 °C. In addition, the IC50 with MCF7 (mammary carcinoma) (Homo sapiens, MCF7, 72 h) is 0.13 nM. Also, the IC50 in data set [1] (Homo sapiens, MCF7R, 72 h) stood at 4.27 nM. Also, in data set [1], the “R/S (resistance factor)” value worked out at 33.
In the case of `CC(=O)O[C@H]1C(=O)[C@@]2(C)C([C@H](OC(=O)c3ccccc3)[C@]3(O)C[C@H](OC(=O)[C@H](O)[C@H](C=C(F)F)NC(=O)OC(C)(C)C)C(C)=C1C3(C)C)[C@]1(OC(C)=O)CO[C@@H]1C[C@@H]2O` (stereo partly shown) [SB-T-12851, 10-Acetyl-3′-dephenyl-3′-(2,2-difluorovinyl)docetaxel], the melting point was in the range of 155 to 160 °C. Besides, the 50% inhibitory concentration (IC50) with MCF7 (mammary carcinoma) (setting [2]) is 0.099 nM. In addition, in data set [1] (setting [3]), the IC50 was 0.95 nM. Besides, the “R/S (resistance factor)” value in data set [1] was 9.6.
In the case of `CC(=O)O[C@@]12CO[C@@H]1C[C@H](O)[C@@]1(C)C(=O)[C@H](OC(=O)C3CC3)C3=C(C)[C@@H](OC(=O)[C@H](O)[C@H](C=C(F)F)NC(=O)OC(C)(C)C)C[C@@](O)([C@@H](OC(=O)c4cccc(N=[N+]=[N-])c4)[C@H]21)C3(C)C` [SB-T-12852-3, 3′-Dephenyl-3′-(2,2-difluorovinyl)-2-debenzoyl-2-(3-azidobenzoyl)-10-cyclopropanecarbonyldocetaxel], the IC50 with MCF7 (mammary carcinoma) (setting [4]) turned out to be 0.092 nM; in data set [1] (setting [5]), 0.45 nM. Besides, the “R/S (resistance factor)” value in data set [1] amounted to 4.9.
